Laboratory results taken from the NIST ThermoML archive (doi:10.1021/je900210h).
Several values for one entry are separate records, joined by “and”; a condition that tells them apart may be missing. Identical values can stand only once.

Conditions: Fluid (supercritical or subcritical phases), Coaxial cylinder method

FCC(F)(F)F [1,1,1,2-tetrafluoroethane]
Conditions | thermal conductivity
299.29 K, 170 kPa | 0.01287 W/m/K
299.63 K, 170 kPa | 0.01279 W/m/K
318.97 K, 740 kPa | 0.01489 W/m/K and 0.01486 W/m/K
319.14 K, 160 kPa | 0.0146 W/m/K
345.58 K, 180 kPa | 0.01711 W/m/K
346.36 K, 180 kPa | 0.01739 W/m/K
348.54 K, 180 kPa | 0.01732 W/m/K
351.84 K, 640 kPa | 0.01763 W/m/K
363.88 K, 180 kPa | 0.01891 W/m/K
365 K, 180 kPa | 0.01891 W/m/K
365.41 K, 180 kPa | 0.01893 W/m/K
365.69 K, 180 kPa | 0.01893 W/m/K
366.52 K, 180 kPa | 0.01892 W/m/K
366.8 K, 180 kPa | 0.01893 W/m/K
372.42 K, 680 kPa | 0.01975 W/m/K
372.43 K, 170 kPa | 0.01968 W/m/K
372.43 K, 680 kPa | 0.01965 W/m/K
374.18 K, 4090 kPa | 0.0729 W/m/K
374.19 K, 4100 kPa | 0.0708 W/m/K
374.21 K, 4120 kPa | 0.068 W/m/K
374.22 K, 4142 kPa | 0.0659 W/m/K
374.22 K, 4149 kPa | 0.0654 W/m/K
374.23 K, 4187 kPa | 0.0642 W/m/K
374.28 K, 4085 kPa | 0.141 W/m/K
374.31 K, 4090 kPa | 0.1233 W/m/K
374.32 K, 4093 kPa | 0.1139 W/m/K
374.34 K, 4097 kPa | 0.1057 W/m/K
374.36 K, 4100 kPa | 0.0993 W/m/K
374.37 K, 4073 kPa | 0.1974 W/m/K
374.37 K, 4074 kPa | 0.1974 W/m/K
374.37 K, 4245 kPa | 0.0643 W/m/K
374.37 K, 4270 kPa | 0.0643 W/m/K
374.37 K, 4358 kPa | 0.0641 W/m/K
374.38 K, 4078 kPa | 0.1828 W/m/K
374.38 K, 4083 kPa | 0.1742 W/m/K
374.38 K, 4105 kPa | 0.0914 W/m/K
374.39 K, 4070 kPa | 0.1644 W/m/K
374.4 K, 4110 kPa | 0.0851 W/m/K
374.47 K, 4071 kPa | 0.1096 W/m/K
374.5 K, 4533 kPa | 0.0637 W/m/K
374.51 K, 4621 kPa | 0.0635 W/m/K
374.52 K, 4710 kPa | 0.0617 W/m/K
374.52 K, 4759 kPa | 0.061 W/m/K
374.54 K, 4072 kPa | 0.0831 W/m/K
374.57 K, 4073 kPa | 0.0764 W/m/K
374.61 K, 4068 kPa | 0.0674 W/m/K
374.66 K, 4063 kPa | 0.0593 W/m/K
374.72 K, 4049 kPa | 0.0529 W/m/K
374.76 K, 3717 kPa | 0.0352 W/m/K
374.89 K, 4035 kPa | 0.0494 W/m/K
374.92 K, 3675 kPa | 0.0342 W/m/K
374.96 K, 4117 kPa | 0.1232 W/m/K
374.96 K, 4119 kPa | 0.1244 W/m/K
374.96 K, 4126 kPa | 0.1244 W/m/K
374.97 K, 4112 kPa | 0.1176 W/m/K
374.97 K, 4132 kPa | 0.1198 W/m/K
374.99 K, 4107 kPa | 0.1106 W/m/K
374.99 K, 10033 kPa | 0.064 W/m/K
375 K, 4149 kPa | 0.101 W/m/K
375.01 K, 8053 kPa | 0.0615 W/m/K
375.03 K, 4099 kPa | 0.091 W/m/K
375.03 K, 4155 kPa | 0.091 W/m/K
375.03 K, 6045 kPa | 0.0576 W/m/K
375.04 K, 888 kPa | 0.0235 W/m/K
375.04 K, 4160 kPa | 0.0861 W/m/K
375.06 K, 4168 kPa | 0.0796 W/m/K
375.07 K, 4097 kPa | 0.0773 W/m/K
375.1 K, 3544 kPa | 0.0321 W/m/K
375.1 K, 3981 kPa | 0.0428 W/m/K
375.1 K, 4185 kPa | 0.0704 W/m/K
375.11 K, 4099 kPa | 0.0671 W/m/K
375.13 K, 4199 kPa | 0.0643 W/m/K
375.14 K, 3928 kPa | 0.0409 W/m/K
375.14 K, 4132 kPa | 0.1072 W/m/K
375.14 K, 4134 kPa | 0.108 W/m/K
375.14 K, 4136 kPa | 0.108 W/m/K
375.14 K, 4138 kPa | 0.108 W/m/K
375.14 K, 4140 kPa | 0.108 W/m/K
375.14 K, 4142 kPa | 0.1072 W/m/K
375.14 K, 4144 kPa | 0.1063 W/m/K
375.14 K, 4216 kPa | 0.0612 W/m/K
375.15 K, 4130 kPa | 0.1055 W/m/K
375.15 K, 4146 kPa | 0.1047 W/m/K
375.15 K, 4148 kPa | 0.1024 W/m/K
375.16 K, 4150 kPa | 0.1009 W/m/K
375.16 K, 4153 kPa | 0.0988 W/m/K
375.16 K, 4244 kPa | 0.0586 W/m/K
375.17 K, 4157 kPa | 0.0941 W/m/K
375.17 K, 4289 kPa | 0.0565 W/m/K
375.18 K, 4030 kPa | 0.0479 W/m/K
375.18 K, 4160 kPa | 0.0916 W/m/K
375.18 K, 4340 kPa | 0.055 W/m/K
375.18 K, 4942 kPa | 0.0559 W/m/K
375.18 K, 5054 kPa | 0.0557 W/m/K
375.18 K, 5057 kPa | 0.055 W/m/K
375.19 K, 4163 kPa | 0.0881 W/m/K
375.19 K, 4379 kPa | 0.0546 W/m/K
375.19 K, 4458 kPa | 0.0541 W/m/K
375.19 K, 4551 kPa | 0.0545 W/m/K
375.19 K, 4557 kPa | 0.0538 W/m/K
375.2 K, 4166 kPa | 0.0849 W/m/K
375.2 K, 4456 kPa | 0.053 W/m/K
375.21 K, 4170 kPa | 0.0823 W/m/K
375.21 K, 4171 kPa | 0.0814 W/m/K
375.23 K, 4178 kPa | 0.0777 W/m/K
375.23 K, 4181 kPa | 0.076 W/m/K
375.24 K, 4120 kPa | 0.1016 W/m/K
375.24 K, 4189 kPa | 0.0731 W/m/K
375.28 K, 4145 kPa | 0.0986 W/m/K
375.28 K, 4150 kPa | 0.1002 W/m/K
375.28 K, 4156 kPa | 0.1002 W/m/K
375.28 K, 4162 kPa | 0.0994 W/m/K
375.28 K, 4167 kPa | 0.0984 W/m/K
375.28 K, 4208 kPa | 0.0667 W/m/K
375.29 K, 4139 kPa | 0.0943 W/m/K
375.29 K, 4174 kPa | 0.0955 W/m/K
375.3 K, 4089 kPa | 0.0573 W/m/K
375.3 K, 4181 kPa | 0.0927 W/m/K
375.3 K, 4229 kPa | 0.0627 W/m/K
375.31 K, 4189 kPa | 0.0889 W/m/K
375.31 K, 4254 kPa | 0.0613 W/m/K
375.31 K, 4265 kPa | 0.061 W/m/K
375.31 K, 4294 kPa | 0.0605 W/m/K
375.31 K, 4307 kPa | 0.0603 W/m/K
375.31 K, 4341 kPa | 0.06 W/m/K
375.32 K, 4130 kPa | 0.0916 W/m/K
375.32 K, 4134 kPa | 0.0856 W/m/K
375.32 K, 4197 kPa | 0.0848 W/m/K
375.32 K, 4389 kPa | 0.0592 W/m/K
375.32 K, 4450 kPa | 0.0585 W/m/K
375.32 K, 4490 kPa | 0.0588 W/m/K
375.33 K, 4129 kPa | 0.087 W/m/K
375.33 K, 4204 kPa | 0.0816 W/m/K
375.34 K, 3828 kPa | 0.0367 W/m/K
375.34 K, 4085 kPa | 0.0517 W/m/K
375.34 K, 4126 kPa | 0.0773 W/m/K
375.36 K, 4121 kPa | 0.0721 W/m/K
375.36 K, 4216 kPa | 0.0746 W/m/K
375.37 K, 4128 kPa | 0.0763 W/m/K
375.38 K, 4225 kPa | 0.0686 W/m/K
375.39 K, 4235 kPa | 0.0668 W/m/K
375.4 K, 4126 kPa | 0.0683 W/m/K
375.4 K, 4244 kPa | 0.0645 W/m/K
375.42 K, 3349 kPa | 0.0298 W/m/K
375.42 K, 4115 kPa | 0.0611 W/m/K
375.42 K, 4265 kPa | 0.0608 W/m/K
375.43 K, 4051 kPa | 0.0425 W/m/K
375.43 K, 4280 kPa | 0.0596 W/m/K
375.43 K, 4292 kPa | 0.0588 W/m/K
375.45 K, 4349 kPa | 0.0567 W/m/K
375.46 K, 4029 kPa | 0.0397 W/m/K
375.46 K, 4107 kPa | 0.0545 W/m/K
375.46 K, 4118 kPa | 0.0591 W/m/K
375.46 K, 4473 kPa | 0.0555 W/m/K
375.46 K, 4527 kPa | 0.055 W/m/K
375.46 K, 4625 kPa | 0.055 W/m/K
375.46 K, 4681 kPa | 0.0552 W/m/K
375.46 K, 4735 kPa | 0.0582 W/m/K
375.48 K, 4848 kPa | 0.0566 W/m/K
375.49 K, 4097 kPa | 0.0508 W/m/K
375.51 K, 4107 kPa | 0.0521 W/m/K
375.52 K, 4086 kPa | 0.0475 W/m/K
375.53 K, 4097 kPa | 0.0492 W/m/K
375.56 K, 4055 kPa | 0.0434 W/m/K
375.58 K, 4040 kPa | 0.0421 W/m/K
375.59 K, 3196 kPa | 0.0287 W/m/K
375.6 K, 4065 kPa | 0.0432 W/m/K
375.61 K, 3999 kPa | 0.0395 W/m/K
375.61 K, 4059 kPa | 0.0425 W/m/K
375.63 K, 3965 kPa | 0.0378 W/m/K
375.65 K, 4023 kPa | 0.0393 W/m/K
375.66 K, 3917 kPa | 0.0361 W/m/K
375.69 K, 3874 kPa | 0.0343 W/m/K
375.72 K, 4178 kPa | 0.0857 W/m/K
375.72 K, 4187 kPa | 0.0881 W/m/K
375.73 K, 3772 kPa | 0.0319 W/m/K
375.73 K, 4179 kPa | 0.083 W/m/K
375.73 K, 4199 kPa | 0.0841 W/m/K
375.74 K, 4210 kPa | 0.0799 W/m/K
375.76 K, 3000 kPa | 0.0274 W/m/K
375.76 K, 3658 kPa | 0.0306 W/m/K
375.76 K, 4161 kPa | 0.0752 W/m/K
